{"source": "patent US10668159B2", "about": "“Anti-methanogenic compositions and uses thereof” (Cedars-Sinai Medical Center, priority 2014, dated 2020)", "key": {"[1]": {"conditions": "pylorus-ligated rats, within 30 min; cited from earlier work"}, "M. smithii": {"test_system": "M. smithii", "test": "Lovastatin gavage in M. smithii colonized high-fat diet rats, qPCR of bowel segments", "format": "in vivo, Sprague-Dawley rats", "conditions": "1.5 mg/rat gavaged daily for 10 days", "method": "The rats were assessed for increased M. smithii by qPCR before and after the diet, and then divided into 3 groups. Group 1 was given lovastatin in its lactone form, Group 2 was given lovastatin hydroxy acid (each 1.5 mg/rat), and Group 3 was gavaged with a placebo. Each group was gavaged daily for 10 days. Three day stool collections were performed to assess average stool wet weight and daily variability prior to commencing the high fat diet, after 7 weeks of high-fat diet, and the final days of the lovastatin gavage (still on high-fat diet). On day 10 of the gavage, rats were euthanized and DNA was extracted from contents of ligated bowel segments (duodenum, jejunum, ileum, cecum and left colon). qPCR was performed using primers for total luminal bacteria and M. smithii."}, "[2]": {"test_system": "human and rat fecal bacterial enzyme fractions", "conditions": "over a 12 h period; cited from earlier work"}, "[3]": {"test": "Binary stress testing of 1:1 lovastatin/excipient mixtures, HPLC", "conditions": "range of temperature and humidity conditions, 7 days", "experimental": "The compatibility of lovastatin drug substance with formulation excipients was evaluated in binary stress testing studies where 1:1 mixtures of lovastatin and each excipient were stored for 7 days under different conditions of temperature and relative humidity (RH). Samples were analyzed by HPLC (based on USP methods) at day 0 and day 7."}, "[4]": {"conditions": "after oral administration; cited from earlier work"}}}
{"smiles": "CC[C@H](C)C(=O)O[C@H]1C[C@@H](C)C=C2C=C[C@H](C)[C@H](CC[C@@H](O)C[C@@H](O)CC(=O)O)[C@H]21", "note": "[lovastatin β-hydroxyacid]", "values": [{"measurement": "fraction of an intragastric dose that exited the gastric juice", "setting": "[1]", "result": "~30", "unit": "%"}, {"measurement": "M. smithii levels in the colon", "setting": "M. smithii", "result": "unaffected"}]}
{"smiles": "CC[C@H](C)C(=O)O[C@H]1C[C@@H](C)C=C2C=C[C@H](C)[C@H](CC[C@@H]3C[C@@H](O)CC(=O)O3)[C@H]21", "note": "[Lovastatin]", "values": [{"measurement": "fraction of an intragastric dose that exited the gastric juice", "setting": "[1]", "result": "~30", "unit": "%"}, {"measurement": "loss of lovastatin lactone", "setting": "[2]", "result": "8-19%"}, {"measurement": "M. smithii levels in the colon", "setting": "M. smithii", "result": "unaffected"}, {"measurement": "ratio of M. smithii to total bacteria in the ileum", "setting": "M. smithii; versus placebo", "result": "reduced"}, {"measurement": "stability in binary stress testing", "setting": "[3]", "result": "stable"}, {"measurement": "pre-portal hydrolysis in vivo", "setting": "[4]", "result": "~10", "unit": "%"}]}
